Source: ChEMBL document CHEMBL5584359, “Discovery and Preclinical Profile of ALG-055009, a Potent and Selective Thyroid Hormone Receptor Beta (THR-β) Agonist for the Treatment of MASH” (J Med Chem, 2024)
The source made the active and inactive calls. The rule behind the calls is not given here.

How the values were obtained:
in vitro [1] = settings: human, cryopreserved hepatocytes
CYP2C9 = CYP2C9 (Homo sapiens, UniProt P11712); test: Inhibition of CYP2C9 in human liver microsomes at 10 uM in presence of NADPH relative to control
CYP2C8 = target: T1, CYP2C8 (Homo sapiens, UniProt P10632); test: Inhibition of CYP2C8 in human liver microsomes at 10 uM in presence of NADPH relative to control
T1 sequence (P10632 whole entry): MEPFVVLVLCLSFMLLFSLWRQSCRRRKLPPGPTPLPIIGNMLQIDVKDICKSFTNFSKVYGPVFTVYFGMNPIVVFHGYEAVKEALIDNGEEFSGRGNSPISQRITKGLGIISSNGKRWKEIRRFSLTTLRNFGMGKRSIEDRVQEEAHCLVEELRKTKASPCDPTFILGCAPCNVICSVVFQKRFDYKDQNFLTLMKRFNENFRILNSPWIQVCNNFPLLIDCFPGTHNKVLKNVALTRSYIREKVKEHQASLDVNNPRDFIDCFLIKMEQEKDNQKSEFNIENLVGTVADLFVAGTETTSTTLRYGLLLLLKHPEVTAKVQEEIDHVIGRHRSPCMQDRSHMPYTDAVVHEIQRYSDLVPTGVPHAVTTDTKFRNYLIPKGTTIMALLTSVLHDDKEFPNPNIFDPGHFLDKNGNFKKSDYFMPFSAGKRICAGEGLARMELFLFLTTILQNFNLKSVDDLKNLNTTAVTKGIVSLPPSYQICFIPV

[2] = Plasma protein binding in human at 2 uM incubated for 4 hrs by rapid equilibrium dialysis
in vitro [3] = settings: rat, cryopreserved hepatocytes
[4] = Plasma protein binding in Sprague-Dawley rat at 2 uM incubated for 4 hrs by rapid equilibrium dialysis
[5] = Apparent permeability of the compound from apical to basolateral side in human Caco-2 cells incubated for 1 hr
in vitro [6] = settings: mouse, cryopreserved hepatocytes
[7] = target: T2, Solute carrier organic anion transporter family member 1B1 (Homo sapiens, UniProt Q9Y6L6); test: Inhibition of OATP1B1 (unknown origin) stably transfected in HEK293 cells at 1 to 100 uM; format: cell-based
T2 sequence (Q9Y6L6 whole entry): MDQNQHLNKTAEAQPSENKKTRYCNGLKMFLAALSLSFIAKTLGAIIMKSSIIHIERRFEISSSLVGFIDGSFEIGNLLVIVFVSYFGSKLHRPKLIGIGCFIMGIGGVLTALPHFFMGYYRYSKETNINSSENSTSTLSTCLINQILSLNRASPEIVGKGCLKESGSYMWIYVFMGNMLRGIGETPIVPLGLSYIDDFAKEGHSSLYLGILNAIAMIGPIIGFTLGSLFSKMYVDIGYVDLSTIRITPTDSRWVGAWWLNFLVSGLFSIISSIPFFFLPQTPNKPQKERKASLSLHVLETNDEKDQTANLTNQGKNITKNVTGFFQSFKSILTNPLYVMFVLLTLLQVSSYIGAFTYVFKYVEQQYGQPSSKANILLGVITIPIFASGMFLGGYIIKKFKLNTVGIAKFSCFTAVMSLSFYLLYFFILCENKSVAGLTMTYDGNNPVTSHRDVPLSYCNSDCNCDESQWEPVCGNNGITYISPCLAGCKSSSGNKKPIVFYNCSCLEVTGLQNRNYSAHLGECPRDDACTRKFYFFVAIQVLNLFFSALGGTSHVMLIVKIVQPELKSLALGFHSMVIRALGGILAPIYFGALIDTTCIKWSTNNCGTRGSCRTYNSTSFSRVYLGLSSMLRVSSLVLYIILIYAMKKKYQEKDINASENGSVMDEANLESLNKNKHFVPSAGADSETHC

[8] = target: T3, UDP-glucuronosyltransferase 1A1 (Homo sapiens, UniProt P22309); test: Inhibition of human recombinant UGT1A1 in presence of UDPGA cofactor
T3 sequence (P22309 whole entry): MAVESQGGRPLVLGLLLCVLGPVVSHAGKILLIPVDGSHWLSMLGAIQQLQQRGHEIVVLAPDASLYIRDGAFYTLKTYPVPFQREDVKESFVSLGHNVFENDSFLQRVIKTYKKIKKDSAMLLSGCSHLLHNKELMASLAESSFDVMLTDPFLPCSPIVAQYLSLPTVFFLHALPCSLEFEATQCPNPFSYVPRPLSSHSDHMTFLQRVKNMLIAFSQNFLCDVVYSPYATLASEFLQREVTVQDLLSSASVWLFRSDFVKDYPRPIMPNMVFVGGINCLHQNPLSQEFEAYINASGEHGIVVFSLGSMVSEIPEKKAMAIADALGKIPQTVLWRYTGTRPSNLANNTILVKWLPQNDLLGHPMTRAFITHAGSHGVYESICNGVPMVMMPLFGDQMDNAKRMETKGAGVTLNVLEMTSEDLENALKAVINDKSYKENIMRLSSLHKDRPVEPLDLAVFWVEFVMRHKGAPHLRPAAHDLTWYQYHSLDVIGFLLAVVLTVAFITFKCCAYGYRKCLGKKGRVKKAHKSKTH

[9] = target: Sodium channel protein type 5 subunit alpha (Homo sapiens, UniProt Q14524); test: Inhibition of Nav1.5 (unknown origin)
[10] = target: Voltage-dependent L-type calcium channel subunit alpha-1C (Homo sapiens, UniProt Q13936); test: Inhibition of CaV1.2 (unknown origin)
[11] = Plasma protein binding in Beagle dog at 2 uM incubated for 4 hrs by rapid equilibrium dialysis
[12] = Plasma protein binding in cynomolgus monkey at 2 uM incubated for 4 hrs by rapid equilibrium dialysis
Rattus norvegicus [13] = species on record: Rattus norvegicus; test: Antihypercholesterolemic activity against high fat diet-induced Sprague-Dawley rat model assessed as minimum effective dose measured after 24 hrs post dose; format: functional; settings: read-out: MED
Rattus norvegicus [14] = test: Antihypercholesterolemic activity against high fat diet-induced Sprague-Dawley rat model assessed as change in T3 level at 0.15 mg/kg, po measured at 1 to 24 hrs post dose; format: functional; settings: time 1-24 hrs
Rattus norvegicus [15] = test: Antihypercholesterolemic activity against high fat diet-induced po dosed Sprague-Dawley rat model assessed as reduction in TC level measured after 24 hrs post dose; format: functional, organism-based; settings: dose 0.15-5 mg/kg
Rattus norvegicus [16] = test: Antihypercholesterolemic activity against high fat diet-induced Sprague-Dawley rat model assessed as change in LDL-C level at 0.15 mg/kg, po measured at 1 to 24 hrs post dose; format: functional; settings: time 1-24 hrs
Rattus norvegicus [17] = test: Antihypercholesterolemic activity against high fat diet-induced Sprague-Dawley rat model assessed as change in T3 level at 1.5 mg/kg, po measured at 1 to 24 hrs post dose; format: functional; settings: time 1-24 hrs
Rattus norvegicus [18] = test: Antihypercholesterolemic activity against high fat diet-induced Sprague-Dawley rat model assessed as change in total cholesterol level at 1.5 mg/kg, po measured at 1 to 24 hrs post dose; format: functional; settings: time 1-24 hrs
Rattus norvegicus [19] = test: Antihypercholesterolemic activity against high fat diet-induced Sprague-Dawley rat model assessed as change in LDL-C level at 5 mg/kg, po measured at 1 to 24 hrs post dose; format: functional; settings: time 1-24 hrs
Rattus norvegicus [20] = test: Antihypercholesterolemic activity against high fat diet-induced Sprague-Dawley rat model assessed as change in T4 level at 1.5 mg/kg, po measured at 1 to 24 hrs post dose; format: functional; settings: time 1-24 hrs
Rattus norvegicus [21] = test: Antihypercholesterolemic activity against high fat diet-induced Sprague-Dawley rat model assessed as change in total cholesterol level at 5 mg/kg, po measured at 1 to 24 hrs post dose; format: functional; settings: time 1-24 hrs
Rattus norvegicus [22] = test: Antihypercholesterolemic activity against high fat diet-induced Sprague-Dawley rat model assessed as change in total cholesterol level at 0.15 mg/kg, po measured at 1 to 24 hrs post dose; format: functional; settings: time 1-24 hrs
Rattus norvegicus [23] = test: Antihypercholesterolemic activity against high fat diet-induced Sprague-Dawley rat model assessed as change in T4 level at 0.15 mg/kg, po measured at 1 to 24 hrs post dose; format: functional; settings: time 1-24 hrs
[24] = Cmax in Sprague-Dawley rat at 5 mg/kg, po measured for 24 hrs by LC-MS/MS analysis; format: ADME, organism-based; settings: in vivo
[25] = Cmax in Sprague-Dawley rat at 1.5 mg/kg, po measured for 24 hrs by LC-MS/MS analysis; format: ADME, organism-based; settings: in vivo
in vitro [26] = settings: dog, cryopreserved hepatocytes
[27] = Ratio AUC in rat liver to plasma; settings: other tissue
[28] = Ratio AUC in mouse liver to plasma; settings: other tissue
in vitro [29] = settings: cynomolgus monkey, cryopreserved hepatocytes
Rattus norvegicus [30] = test: Antihypercholesterolemic activity against high fat diet-induced Sprague-Dawley rat model assessed as change in T4 level at 5 mg/kg, po measured at 1 to 24 hrs post dose; format: functional; settings: time 1-24 hrs
Rattus norvegicus [31] = test: Antihypercholesterolemic activity against high fat diet-induced Sprague-Dawley rat model assessed as change in LDL-C level at 1.5 mg/kg, po measured at 1 to 24 hrs post dose; format: functional; settings: time 1-24 hrs
[32] = Drug concentration in Sprague-Dawley rat plasma at 5 mg/kg, po measured for 24 hrs by LC-MS/MS analysis; format: ADME, organism-based
[33] = Drug concentration in Sprague-Dawley rat liver at 1.5 mg/kg, po measured for 24 hrs by LC-MS/MS analysis; format: ADME, organism-based; settings: read-out: Ct
[34] = Drug concentration in Sprague-Dawley rat plasma at 1.5 mg/kg, po measured for 24 hrs by LC-MS/MS analysis; format: ADME, organism-based
Rattus norvegicus [35] = test: Antihypercholesterolemic activity against high fat diet-induced Sprague-Dawley rat model assessed as change in T3 level at 5 mg/kg, po measured at 1 to 24 hrs post dose; format: functional; settings: time 1-24 hrs
[36] = AUC (0 to 24 hrs) in Sprague-Dawley rat at 1.5 mg/kg, po measured for 24 hrs by LC-MS/MS analysis; format: ADME, organism-based; settings: in vivo
[37] = Effect on CPT1A gene expression in human Huh-7 cells measured for 24 hrs; settings: Huh-7, 24 h
[38] = Drug concentration in Sprague-Dawley rat liver at 5 mg/kg, po measured for 24 hrs by LC-MS/MS analysis; format: ADME, organism-based; settings: read-out: Ct

Sequence of CYP2C9 (P11712 whole entry): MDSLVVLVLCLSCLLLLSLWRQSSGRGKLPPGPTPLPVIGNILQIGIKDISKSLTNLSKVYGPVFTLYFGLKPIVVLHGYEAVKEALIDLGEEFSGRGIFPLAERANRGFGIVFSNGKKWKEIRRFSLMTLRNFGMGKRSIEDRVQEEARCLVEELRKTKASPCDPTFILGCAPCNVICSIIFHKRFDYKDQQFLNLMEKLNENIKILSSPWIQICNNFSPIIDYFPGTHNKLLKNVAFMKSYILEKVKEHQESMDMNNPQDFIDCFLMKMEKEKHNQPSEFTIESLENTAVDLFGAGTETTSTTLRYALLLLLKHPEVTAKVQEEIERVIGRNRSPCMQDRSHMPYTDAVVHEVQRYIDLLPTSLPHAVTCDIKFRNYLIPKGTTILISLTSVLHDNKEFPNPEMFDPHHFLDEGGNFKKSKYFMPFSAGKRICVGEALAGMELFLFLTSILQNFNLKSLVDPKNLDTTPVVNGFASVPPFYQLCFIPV
Sequence of Sodium channel protein type 5 subunit alpha (Q14524 whole entry): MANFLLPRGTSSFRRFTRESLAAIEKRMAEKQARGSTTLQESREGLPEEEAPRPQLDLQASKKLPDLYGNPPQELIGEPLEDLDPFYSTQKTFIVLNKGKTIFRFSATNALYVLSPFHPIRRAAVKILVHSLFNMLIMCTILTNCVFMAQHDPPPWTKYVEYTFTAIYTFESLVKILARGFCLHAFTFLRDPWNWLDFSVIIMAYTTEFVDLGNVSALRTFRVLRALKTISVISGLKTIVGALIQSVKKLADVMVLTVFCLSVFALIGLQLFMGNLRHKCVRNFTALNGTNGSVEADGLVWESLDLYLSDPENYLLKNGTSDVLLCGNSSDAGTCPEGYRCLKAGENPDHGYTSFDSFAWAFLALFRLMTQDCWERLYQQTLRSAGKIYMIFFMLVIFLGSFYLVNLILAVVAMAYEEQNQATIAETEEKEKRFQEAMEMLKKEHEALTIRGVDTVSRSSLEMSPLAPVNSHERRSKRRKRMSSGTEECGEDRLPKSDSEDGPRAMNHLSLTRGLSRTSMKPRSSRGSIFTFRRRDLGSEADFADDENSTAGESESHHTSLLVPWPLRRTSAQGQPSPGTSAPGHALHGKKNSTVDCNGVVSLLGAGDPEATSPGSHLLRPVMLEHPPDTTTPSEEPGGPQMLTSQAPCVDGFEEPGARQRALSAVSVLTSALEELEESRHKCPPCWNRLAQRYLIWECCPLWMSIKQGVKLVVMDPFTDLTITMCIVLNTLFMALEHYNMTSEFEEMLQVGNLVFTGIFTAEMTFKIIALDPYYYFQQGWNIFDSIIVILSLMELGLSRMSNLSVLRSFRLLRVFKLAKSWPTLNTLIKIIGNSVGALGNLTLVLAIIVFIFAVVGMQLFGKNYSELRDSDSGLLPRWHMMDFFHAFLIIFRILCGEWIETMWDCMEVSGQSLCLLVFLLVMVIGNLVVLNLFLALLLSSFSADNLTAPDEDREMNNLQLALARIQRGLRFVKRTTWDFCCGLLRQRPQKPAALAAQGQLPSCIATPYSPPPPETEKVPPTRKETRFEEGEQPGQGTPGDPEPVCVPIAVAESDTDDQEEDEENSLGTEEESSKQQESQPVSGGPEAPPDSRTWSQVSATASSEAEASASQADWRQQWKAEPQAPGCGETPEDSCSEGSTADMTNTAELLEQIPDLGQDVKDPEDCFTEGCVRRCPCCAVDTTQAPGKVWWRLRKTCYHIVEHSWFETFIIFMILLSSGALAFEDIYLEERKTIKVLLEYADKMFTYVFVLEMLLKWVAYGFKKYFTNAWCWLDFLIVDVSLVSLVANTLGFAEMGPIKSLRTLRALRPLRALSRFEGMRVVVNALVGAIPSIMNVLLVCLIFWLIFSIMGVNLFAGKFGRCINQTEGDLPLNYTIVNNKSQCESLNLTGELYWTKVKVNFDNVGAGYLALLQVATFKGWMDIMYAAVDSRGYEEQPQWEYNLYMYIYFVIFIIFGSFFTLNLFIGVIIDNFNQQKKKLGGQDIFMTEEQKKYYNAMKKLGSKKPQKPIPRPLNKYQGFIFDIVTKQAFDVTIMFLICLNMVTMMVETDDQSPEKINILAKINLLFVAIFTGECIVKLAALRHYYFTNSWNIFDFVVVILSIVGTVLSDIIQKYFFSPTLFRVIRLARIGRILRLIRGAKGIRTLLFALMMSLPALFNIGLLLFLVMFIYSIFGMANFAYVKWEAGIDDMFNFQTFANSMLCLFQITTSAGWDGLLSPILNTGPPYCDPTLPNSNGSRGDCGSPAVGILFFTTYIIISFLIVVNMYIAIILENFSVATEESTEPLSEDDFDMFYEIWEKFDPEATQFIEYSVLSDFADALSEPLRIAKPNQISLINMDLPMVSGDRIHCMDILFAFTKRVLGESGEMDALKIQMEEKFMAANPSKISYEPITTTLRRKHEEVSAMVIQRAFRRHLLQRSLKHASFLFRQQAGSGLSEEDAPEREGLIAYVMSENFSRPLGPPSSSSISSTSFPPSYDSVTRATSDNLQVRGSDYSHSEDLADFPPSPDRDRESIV
Sequence of Voltage-dependent L-type calcium channel subunit alpha-1C (Q13936 whole entry): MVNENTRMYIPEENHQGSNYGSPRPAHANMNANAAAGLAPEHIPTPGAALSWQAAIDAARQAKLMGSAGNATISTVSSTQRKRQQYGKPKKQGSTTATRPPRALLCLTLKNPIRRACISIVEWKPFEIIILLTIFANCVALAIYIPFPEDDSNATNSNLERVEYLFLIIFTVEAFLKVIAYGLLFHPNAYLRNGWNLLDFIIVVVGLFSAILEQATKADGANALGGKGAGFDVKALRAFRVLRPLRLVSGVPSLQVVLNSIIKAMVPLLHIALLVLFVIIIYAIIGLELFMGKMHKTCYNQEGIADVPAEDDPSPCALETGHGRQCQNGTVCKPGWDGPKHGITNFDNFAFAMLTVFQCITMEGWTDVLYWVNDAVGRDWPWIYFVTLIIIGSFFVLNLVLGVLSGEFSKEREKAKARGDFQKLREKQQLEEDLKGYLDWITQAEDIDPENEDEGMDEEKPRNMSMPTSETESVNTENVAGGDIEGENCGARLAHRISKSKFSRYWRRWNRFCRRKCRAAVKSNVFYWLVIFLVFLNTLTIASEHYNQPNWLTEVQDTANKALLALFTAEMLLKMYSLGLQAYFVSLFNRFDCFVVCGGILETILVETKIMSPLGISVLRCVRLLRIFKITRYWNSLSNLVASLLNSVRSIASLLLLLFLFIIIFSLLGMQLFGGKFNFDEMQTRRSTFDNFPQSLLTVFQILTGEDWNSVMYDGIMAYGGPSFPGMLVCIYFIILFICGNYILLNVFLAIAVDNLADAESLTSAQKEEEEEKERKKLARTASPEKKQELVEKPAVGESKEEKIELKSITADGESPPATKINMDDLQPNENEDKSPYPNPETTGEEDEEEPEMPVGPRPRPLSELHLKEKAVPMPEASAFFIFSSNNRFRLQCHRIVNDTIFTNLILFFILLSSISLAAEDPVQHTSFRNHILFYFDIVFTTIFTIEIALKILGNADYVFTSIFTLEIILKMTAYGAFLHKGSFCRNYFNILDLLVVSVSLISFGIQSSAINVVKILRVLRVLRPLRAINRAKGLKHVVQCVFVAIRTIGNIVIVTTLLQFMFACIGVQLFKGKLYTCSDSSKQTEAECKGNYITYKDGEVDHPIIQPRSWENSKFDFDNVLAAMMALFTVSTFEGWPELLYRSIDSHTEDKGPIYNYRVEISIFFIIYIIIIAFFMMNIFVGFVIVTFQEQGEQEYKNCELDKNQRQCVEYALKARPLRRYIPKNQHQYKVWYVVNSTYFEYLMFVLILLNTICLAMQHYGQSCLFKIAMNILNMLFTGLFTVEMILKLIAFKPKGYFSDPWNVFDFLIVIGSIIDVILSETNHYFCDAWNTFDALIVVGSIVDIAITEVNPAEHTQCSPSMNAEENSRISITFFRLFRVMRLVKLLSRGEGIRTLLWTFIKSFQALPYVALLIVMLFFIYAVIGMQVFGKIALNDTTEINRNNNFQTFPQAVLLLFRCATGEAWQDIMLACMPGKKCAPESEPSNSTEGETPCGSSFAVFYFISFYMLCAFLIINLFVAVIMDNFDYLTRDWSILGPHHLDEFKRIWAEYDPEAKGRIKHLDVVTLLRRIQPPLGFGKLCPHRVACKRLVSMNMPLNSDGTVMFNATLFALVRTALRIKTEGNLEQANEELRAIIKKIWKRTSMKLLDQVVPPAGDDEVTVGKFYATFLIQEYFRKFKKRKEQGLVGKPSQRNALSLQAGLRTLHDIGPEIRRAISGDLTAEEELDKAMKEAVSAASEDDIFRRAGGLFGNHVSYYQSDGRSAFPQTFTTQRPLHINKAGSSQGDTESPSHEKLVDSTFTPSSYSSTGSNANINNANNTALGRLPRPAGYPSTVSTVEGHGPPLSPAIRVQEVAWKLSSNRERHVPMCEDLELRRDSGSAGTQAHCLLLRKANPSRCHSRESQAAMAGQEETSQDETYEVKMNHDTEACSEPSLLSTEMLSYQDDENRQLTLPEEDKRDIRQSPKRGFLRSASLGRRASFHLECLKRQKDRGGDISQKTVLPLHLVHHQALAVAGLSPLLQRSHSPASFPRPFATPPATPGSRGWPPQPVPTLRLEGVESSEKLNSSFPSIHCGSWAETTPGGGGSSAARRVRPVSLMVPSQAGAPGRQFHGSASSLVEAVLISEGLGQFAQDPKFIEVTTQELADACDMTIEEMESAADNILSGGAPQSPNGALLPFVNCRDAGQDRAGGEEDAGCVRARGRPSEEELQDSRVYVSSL

C#Cc1nn(-c2cc(Cl)c(Oc3cc(C(C)C)c(=O)[nH]n3)c(Cl)c2)c(=O)[nH]c1=O
half-life at 3 h, 1 µM (in vitro [1]): 1.72 h
inhibition at 10 µM (CYP2C9): 61%
inhibition at 10 µM (CYP2C8): 87%
fraction unbound at 4 h, 2 µM [2]: 0.01
half-life at 3 h, 1 µM (in vitro [3]): 1.43 h
fraction unbound at 4 h, 2 µM [4]: < 0.002
Papp A→B at 1 h ([5]; Caco-2): 0.3 ×10⁻⁶ cm/s
half-life at 3 h, 1 µM (in vitro [6]): 1.18 h

CC(C)c1cc(Oc2c(Cl)cc(-n3nc(N)c(=O)[nH]c3=O)cc2Cl)n[nH]c1=O
IC50 [7]: 23.8 µM
IC50 [8]: 37.5 µM
IC50 [9]: > 10 µM
IC50 [10]: > 10 µM

CC(C)c1cc(Oc2c(Cl)cc(-n3nc(C#N)c(=O)[nH]c3=O)cc2Cl)n[nH]c1=O [RESMETIROM]
fraction unbound at 4 h, 2 µM [11]: 0.012
half-life at 3 h, 1 µM (in vitro [1]): 3.22 h
fraction unbound at 4 h, 2 µM [12]: 0.005
inhibition at 10 µM (CYP2C9): 49%
minimal effective dose (Rattus norvegicus [13]): 0.15 mg/kg
inhibition at 10 µM (CYP2C8): 91%
Activity (Rattus norvegicus [14]): -4.6%
Activity (Rattus norvegicus [15]): Active
Activity (Rattus norvegicus [16]): -0.8%
Activity (Rattus norvegicus [17]): 1.7%
Activity (Rattus norvegicus [18]): -25.8%
Activity (Rattus norvegicus [19]): -44.2%
Activity (Rattus norvegicus [20]): -15.6%
Activity (Rattus norvegicus [21]): -34.5%
Activity (Rattus norvegicus [22]): 9.5%
Activity (Rattus norvegicus [23]): -18.4%
Cmax [24]: 2550 ng/mL
fraction unbound at 4 h, 2 µM [2]: 0.003
Cmax [25]: 969 ng/mL
half-life at 3 h, 1 µM (in vitro [26]): > 6 h
Kp [27]: 6.8
half-life at 3 h, 1 µM (in vitro [3]): > 6 h
fraction unbound at 4 h, 2 µM [4]: 0.004
Kp [28]: 6.3
half-life at 3 h, 1 µM (in vitro [29]): 1.85 h
Papp ([5]; caco-2, 1 h): 0.03 10^-6 cm/s
Activity (Rattus norvegicus [30]): -15.7%
Activity (Rattus norvegicus [31]): -34.8%
concentration at 24 h [32]: 217 ng/mL
concentration at 24 h [33]: 73.6 ng/g
concentration at 24 h [34]: 38.2 ng/mL
Activity (Rattus norvegicus [35]): -1.9%
AUC(0-t) at 24 h [36]: 9410 ng·h/mL
EC50 [37]: 0.303 µM
concentration at 24 h [38]: 613 ng/g
half-life at 3 h, 1 µM (in vitro [6]): > 6 h
